{"source": "patent US20190022229A1", "about": "“CANNABINOID/TERPENE ENRICHED CAPRYLIC ACID” (priority 2017, published 2019)", "origin": "cited, not measured here", "details": "over an eight-hour period; compared with capric acid (C10) alone; from Vandenberghe et al. 2016"}
{"smiles": "CCCCCCCC(=O)O", "note": "[caprylic acid]", "values": [{"measurement": "increase in total plasma ketone levels relative to capric acid (C10) alone", "result": "approximately three times more"}]}
